{"source": "patent US11667658B2", "about": "“Chemical synthesis of the organoarsenical antibiotic arsinothricin” (The Florida International University Board of Trustees, priority 2021, dated 2023)", "tested_on": "PpArsN1, the AST-selective N-acetyltransferase", "test": "Enzymatic N-acetylation of AST by PpArsN1 (HPLC-ICP-MS)", "type": "biochemical, Pseudomonas putida KT2440", "experimental": "Enzymatic N-acetylation of AST (1). PpArsN1, the AST-selective N-acetyltransferase from Pseudomonas putida KT2440, was purified. […] The reaction solution was filtered using an Amicon Ultra centrifugal filter with a 3K cutoff membrane (MilliporeSigma), and arsenic species in the filtrate were analyzed by HPLC-ICP-MS."}
{"smiles": "C[As](=O)(O)CCC(N)C(=O)O", "note": "(centres unmarked) [sAST]", "values": [{"measurement": "conversion to L-N-Ac-AST by PpArsN1", "setting": "10 μM AST, 0.2 μM PpArsN1, 0.2 mM AcCoA, 37° C., 30 min (FIG. 23)", "value": 50, "unit": "%"}]}
{"smiles": "C[As](=O)(O)CCC(N)C(=O)O", "note": "(centres unmarked) [bAST]", "values": [{"measurement": "conversion to L-N-Ac-AST by PpArsN1 (in words)", "setting": "PpArsN1/AcCoA, HPLC-ICP-MS (FIG. 23)", "value": "nearly completely converted"}]}
